Assay results taken from patent US8592564B2, “Immunoassays for lamotrigine” (Seradyn, Inc., priority 2004, dated 2013).

Tested on: anti-lamotrigine antibody
Assay: Cross-reactivity of polyclonal antibody with lamotrigine metabolites
Type: binding
Details: 500 μg/mL spiked into human serum
Method: A polyclonal antisera is obtained and an assay is performed in order to determine the amount of cross-reactivity of the polyclonal antibody with lamotrigine and lamotrigine metabolites. A known amount of lamotrigine is used to react with an anti-lamotrigine antibody prepared in accordance with the present invention. The known concentration of lamotrigine is used to calculate the amount of cross-reactivity between the antibody preparation and the metabolites as follows: N-methyl (29); N-oxide (30); and N-2 gluronide (31). The percent of cross-reactivity equals 100 times the observed concentration of lamotrigine in μg/mL, which is then divided by the concentration of added metabolites in μg/mL. No cross-reactivity is observed in specimens containing those metabolites. High concentrations of these compounds are spiked into human serum and tested as samples. The metabolites are assayed and compared to control serum (no lamotrigine). Cross reactivity is calculated using the following equation: […]
Also, the cross-reactivity of N-2 oxide at 500 μg/mL is less then 3%.

SMILES | cross-reactivity
C[n+]1nc(-c2cccc(Cl)c2Cl)c(N)nc1N [N-2 methyl] | do not have any cross-reactivity
Nc1nc(N)[n+]([O-])nc1-c1cccc(Cl)c1Cl [N-2 oxide] | < 3%
